Data: patent US20230416261A1, “ETHANEDIAMINE-HETEROCYCLE DERIVATIVES AS INHIBITORS OF PROTEIN ARGININE METHYLTRANSFERASES” (Board of Regents, The University of Texas System, priority 2021, published 2023)

Assays:
PRMT1 [1] = molecular target: T1, PRMT1 (Homo sapiens, UniProt Q99873); assay: PRMT1 RKO Cellular Target Engagement Assay (In-Cell Western, asymmetric di-methyl arginine); type: cell-based; conditions: RKO cells, 48 hr compound incubation; read-out: RKO IC50 (PRMT-1 Target Engagement)
Outline: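 RKO cells (1,000/well) received 1:3 serially diluted compound for 48 h at 37 °C, then were fixed, permeabilised and immunostained for asymmetric di-methyl arginine by In-Cell Western. The 800 nm antibody signal was normalised to CellTag 700 nm; IC50 from four-parameter logistic fit.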

PATC53 cells = assay: PATC53 Long Term Phenotypic Assay (14 days, crystal violet viability); type: cell-based; conditions: 336 h
Protocol: PATC53 cells were derived from the PATC53 PDX model and kindly provided by Jason Fleming (MDACC). The cells were routinely maintained in DMEM/F12 Medium (Corning, Catalog #10-090-CV) supplemented with 10% fetal bovine serum (Sigma, Catalog #F2442), 100 units/mL penicillin and 100 μg/mL streptomycin (Gibco, Catalog #15140-122) in a humidified incubator (37° C., 5% CO2). Prior to the assay, cells were seeded onto a 12-well, TC treated plate (Corning, catalog #353043) at a density of 250 cells per well in a volume of 1 mL. The plate was incubated for 24 hours at 37° C. and 5% CO2. Stock solutions of the test compounds were prepared in 100% DMSO (Sigma, Catalog #D2650) and serially diluted 1:3 using 100% DMSO. Compounds were additionally diluted 1:100 in culture medium, and 110 μL/well was transferred to the tissue culture plate. Following the compound addition, the plate was incubated at 37° C. and 5% CO2 for 14 days. Viability was then assessed by crystal violet staining (Fisher Scientific, Catalog #C58125) as follows: 450 μL of crystal violet (1 mg/mL) was added to the plate for a 10 minute incubation at room temperature. After incubation, the plate was washed 3× with distilled water to remove excess dye and allowed to dry overnight. The crystal violet was solubilized using 10% HOAc (500 μL) for 10 minutes at room temperature, while shaking. A volume of 100 μL was then transferred to a 96-well SpectraPlate (Perkin Elmer, Catalog #6005649). Absorbance at 590 nm was measured with a BioTek Synergy Neo. IC50 values were calculated using a four-parameter logistic curve fit using Genedata Screener software.

DOHH2 cells = assay: DOHH2 Long Term Phenotypic Assay (7 days, Cell Titer-Glo viability); type: cell-based; conditions: Homo sapiens, DOHH-2, 168 h, Cell Titer-Glo 2.0
Outline: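 DOHH2 lymphoma cells (250 per well) in RPMI-1640 with 10% FBS were exposed to 1:3 serially diluted compounds for 7 days at 37 °C, 5% CO2. Viability was read by CellTiter-Glo 2.0 luminescence, and IC50 values came from four-parameter logistic fits.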

PRMT1 [2] = molecular target: T1, PRMT1; assay: PRMT1 Enzymatic Assay (LANCE TR-FRET, methylation of histone H4 at Arg3); type: biochemical; parameters: purchased SignalChem P365-380G; conditions: PRMT1 1.5 nM, SAM 1 μM, biotinylated histone H4 (1-21) 25 nM; read-out: PRMT-1 IC50
Outline: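 PRMT1 (1.5 nM) preincubated 15 min with compound at room temperature, then reacted 1 h with 1 μM SAM and 25 nM biotinylated histone H4 (1-21) in 50 mM Hepes pH 8, 1 mM TCEP, 0.003% Tween-20. H4R3me detected by TR-FRET (665/620 nm ratio); IC50 from four-parameter logistic fit.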

T1 sequence (Q99873 whole entry): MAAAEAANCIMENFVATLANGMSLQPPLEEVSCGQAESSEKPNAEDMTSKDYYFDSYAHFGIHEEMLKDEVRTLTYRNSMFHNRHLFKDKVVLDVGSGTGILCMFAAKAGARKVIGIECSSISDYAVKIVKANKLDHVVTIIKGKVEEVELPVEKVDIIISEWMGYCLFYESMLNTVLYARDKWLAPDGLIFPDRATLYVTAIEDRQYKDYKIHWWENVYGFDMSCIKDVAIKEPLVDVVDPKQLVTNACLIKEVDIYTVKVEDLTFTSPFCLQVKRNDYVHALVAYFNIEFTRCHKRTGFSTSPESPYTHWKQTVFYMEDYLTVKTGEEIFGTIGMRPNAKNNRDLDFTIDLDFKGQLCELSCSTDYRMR

Row | SMILES | IC50 (PRMT1 [1]) [nM] | IC50 (PATC53 cells) [nM] | IC50 (DOHH2 cells) [nM] | IC50 (PRMT1 [2]) [nM]
1 | CNCCN(C)Cc1nn2c(c1C1CCC(COC)(COC)CC1)CN(C(=O)C1CCC(F)(F)CC1)CC2 [Example 29, (3-(4,4-bis(methoxymethyl)-cyclohexyl)-2-((methyl(2-(methylamino)ethyl)amino)-methyl)-6,7-dihydropyrazolo-[1,5-a]pyrazin-5(4H)-yl)(4,4-difluorocyclohexyl)-methanone] | 271 | 84 | 99 | 65
2 | CNCCN(C)Cc1nn2c(c1C1CCC(COC)(COC)CC1)CN(C(=O)COC)CC2 [Example 30, 1-(3-(4,4-bis(methoxy-methyl)cyclohexyl)-2-((methyl(2-(methylamino)-ethyl)amino)methyl)-6,7-dihydropyrazolo[1,5-a]-pyrazin-5(4H)-yl)-2-methoxyethan-1-one] | 795 | 795 | 159 | 81
3 | CNCCN(C)Cc1nn2c(c1C1CCC(COC)(COC)CC1)CN(C(=O)C1CCCO1)CC2 (stereo not drawn) [Example 32, (3-(4,4-bis(methoxymethyl)-cyclohexyl)-2-((methyl(2-(methylamino)ethyl)amino)-methyl)-6,7-dihydropyrazolo-[1,5-a]pyrazin-5(4H)-yl)-(tetrahydrofuran-2-yl)-methanone] | 293 | 163 | 160 | 46
4 | CNCCN(C)Cc1nn2c(c1C1CCC(COC)(COC)CC1)CN(C(=O)C1CCCC1)CC2 [Example 33, (3-(4,4-bis(methoxymethyl)-cyclohexyl)-2-((methyl(2-(methylamino)ethyl)amino)-methyl)-6,7-dihydropyrazolo-[1,5-a]pyrazin-5(4H)-yl)-(cyclopentyl)methanone] | 120 | 55 | 83 | 55
5 | CNCCN(C)Cc1nn2c(c1C1CCC(COC)(COC)CC1)CN(C(=O)C1CCOC1)CC2 (stereo not drawn) [Example 35, (3-(4,4-bis(methoxymethyl)-cyclohexyl)-2-((methyl(2-(methylamino)ethyl)amino)-methyl)-6,7-dihydropyrazolo-[1,5-a]pyrazin-5(4H)-yl)-(tetrahydrofuran-3-yl)-methanone] | 818 | 655 | 212 | 62
6 | CNCCN(C)Cc1nn2c(c1C1CCC(COC)(COC)CC1)CN(C(=O)C(C)(F)F)CC2 [Example 36, 1-(3-(4,4-bis(methoxy-methyl)cyclohexyl)-2-((methyl(2-(methylamino)-ethyl)amino)methyl)-6,7-dihydropyrazolo[1,5-a]-pyrazin-5(4H)-yl)-2,2-difluoropropan-1-one] | 269 | 246 | 190 | 50
7 | CNCCN(C)Cc1nn2c(c1C1CCC(COC)(COC)CC1)CN(C(=O)C(C)(C)C#N)CC2 [Example 37, 3-(3-(4,4-bis(methoxy-methyl)cyclohexyl)-2-((methyl(2-(methylamino)-ethyl)amino)methyl)-6,7-dihydropyrazolo[1,5-a]-pyrazin-5(4H)-yl)-2,2-dimethyl-3-oxopropanenitrile] | 237 | 171 | 142 | 90
8 | CNCCN(C)Cc1nn2c(c1C1CCC(COC)(COC)CC1)CN(C(=O)C(C)C#N)CC2 (stereo not drawn) [Example 38, 3-(3-(4,4-bis(methoxy-methyl)cyclohexyl)-2-((methyl(2-(methylamino)-ethyl)amino)methyl)-6,7-dihydropyrazolo[1,5-a]-pyrazin-5(4H)-yl)-2-methyl-3-oxopropanenitrile] | 690 | 580 | 83 | 103
9 | CNCCN(C)Cc1nn2c(c1C1CCC(COC)(COC)CC1)CN(C(=O)C1CC(C)(C)C1)CC2 [Example 39, (3-(4,4-bis(methoxymethyl)-cyclohexyl)-2-((methyl(2-(methylamino)ethyl)amino)-methyl)-6,7-dihydropyrazolo-[1,5-a]pyrazin-5(4H)-yl)(3,3-dimethylcyclobutyl)-methanone] | 177 | 49 | 108 | 79
